According to PubChem BioAssay (NCI):
“And” between values parts separate entries of the source, which are not always exact repeats. Equal entries are not always repeated.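 Growth conditions: 96-well plates. Treatment: test compound, 48 hours, 5 concentrations. Analysis: linear interpolation between bracketing concentrations; unreached endpoints set to highest concentration. The concentration for 50% growth inhibition is given as GI50. TGI: concentration producing complete growth inhibition.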

Tests used:
Experiment in all cases: NCI anticancer screen, dose series, 48 h
[1] = test system: ACHN renal
[2] = test system: COLO 205 colon
[3] = test system: HCC-2998 colon
[4] = test system: HOP-62 NSCLC
[5] = test system: HT29 colon
[6] = test system: NCI-H23 lung
[7] = test system: NCI-H460 lung
[8] = test system: OVCAR-5 ovarian
[9] = test system: RPMI-8226 leukemia
[10] = test system: TK-10 renal

Compound	GI50 [1]	TGI [1] [µM]	GI50 [2]	TGI [2]	GI50 [3]	TGI [3] [µM]	GI50 [4]	TGI [4]	GI50 [5]	TGI [5] [µM]	GI50 [6]	TGI [6]	GI50 [7]	TGI [7] [µM]	GI50 [8]	TGI [8] [µM]	GI50 [9]	TGI [9]	GI50 [10]	TGI [10] [µM]
C/C(=C(/c1ccc(O)cc1)c1ccc(OCCN2CCCC2)cc1)c1ccccc1	4.28 µM	16.3	1.7 µM	3.38 µM	2.34 µM	6.18	2.1 µM	4.54 µM	1.35 µM	3.2	4.31 µM	18.2 µM	2.36 µM	5.38	7.99 µM	22.5	2.4 µM	6.72 µM	4.61 µM	16.4
CCN(CC)CCC(=O)Nc1ccc(Cn2nnc3c2C(=O)c2nnn(Cc4ccc(NC(=O)CCN(CC)CC)cc4)c2C3=O)cc1	12.5 µM	34.1	0.175 µM	0.333 µM	0.316 µM	0.987	1.75 µM	3.42 µM	0.304 µM	0.787	0.326 µM	1.22 µM	0.356 µM	1.46	0.994 µM	3.34	0.53 µM	3.15 µM	13.2 µM	30.8
CC(C)(C)n1cc(-c2ccnc(NCCNS(=O)(=O)c3ccc(Br)cc3)c2)c(-c2cccc(O)c2)n1	2.1 µM	4.39	1.49 µM	3.13 µM	1.84 µM	3.53	1.5 µM	3 µM	1.52 µM	3.75	1.85 µM	3.97 µM	1.93 µM	3.71	1.78 µM	3.53	1.6 µM	5 µM	2.24 µM	5.93
Cn1c(=O)n(-c2ccc(C(C)(C)C#N)cc2)c2c3cc(-c4cnc5ccccc5c4)ccc3ncc21	< 0.0121 µM and 0.00573 µM and < 0.01 µM	> 100	0.0231 µM and 0.00593 µM	0.702 µM and 0.938 µM	< 0.01 µM and 0.0061 µM	> 100	< 0.01 µM and 0.00605 µM	11.9 µM and > 2.72 µM	0.0101 µM and 0.00603 µM and < 0.01 µM	–	0.0169 µM and 0.00838 µM and < 0.0127 µM	15.9 µM and > 10 µM and > 100 µM	< 0.01 µM and 0.00581 µM	> 100	0.0213 µM and 0.00759 µM and 0.0159 µM	> 100	< 0.0116 µM and 0.00603 µM and < 0.0114 µM	0.385 µM and 3.13 µM and 1.24 µM	0.0102 µM and 0.00652 µM and 0.0126 µM	–
CC1CCC(O)C(C(O)CC2CC(=O)N(C)C(=O)C2)C1 (stereo not drawn)	–	> 100	–	> 100 µM	–	> 100	–	> 100 µM	–	> 100	–	> 100 µM	–	> 100	–	> 100	–	> 100 µM	–	> 100
O=C(OCc1ccccc1CN1CCOCC1)c1ccc(Br)cc1	–	> 100	–	> 100 µM	–	> 100	–	> 100 µM	–	44.2	–	> 100 µM	–	> 100	–	> 100	–	49.7 µM	–	> 100
O=C(Oc1c(I)ccccc1=O)c1ccc([N+](=O)[O-])cc1	–	68.5	–	27.8 µM	–	49.5	–	> 100 µM	–	24.8	–	99.6 µM	–	23.5	–	> 100	–	88 µM	–	> 100
Brc1ccc2c(c1)C1(c3cc(Br)ccc3-2)c2cc(Br)ccc2-c2ccc(Br)cc21	–	> 100	–	> 100 µM	–	> 100	–	> 100 µM	–	> 100	–	> 100 µM	–	> 100	–	> 100	–	> 100 µM	–	> 100
O=C(CCCCCCCCCCc1ccccc1)c1c(O)cccc1O	–	69.9	–	56.5 µM	–	44.3	–	42.2 µM	–	88	–	35.9 µM	–	39.6	–	45.2	–	> 100 µM	–	> 100
CC(CC(=O)O)(CC(=O)O)C(=O)O	–	> 100	–	> 100 µM	–	> 100	–	> 100 µM	–	> 100	–	> 100 µM	–	> 100	–	> 100	–	> 100 µM	–	> 100
O=C1OCC(C(=O)c2cccc(O)c2)C1=O (stereo not drawn)	–	> 100	–	> 100 µM	–	> 100	–	> 100 µM	–	> 100	–	> 100 µM	–	> 100	–	> 100	–	> 100 µM	–	> 100
COc1cc2ccn3c4cc(OC)c(OC)cc4cc3c2cc1OC	–	> 100	–	> 100 µM	–	> 100	–	> 100 µM	–	> 100	–	> 100 µM	–	> 100	–	> 100	–	> 100 µM	–	> 100
Cn1c(=O)c2c3oc(=O)cc(O)c3c(=O)n3c4ccccc4n(c1=O)c23	–	> 100	–	72.6 µM	–	> 100	–	> 100 µM	–	> 100	–	> 100 µM	–	> 100	–	> 100	–	91.5 µM	–	> 100
O=C(CCCCCCCCC(=O)OCC1OC(n2cnc3c(=O)[nH]cnc32)C(O)C1O)OCC1OC(n2cnc3c(=O)[nH]cnc32)C(O)C1O (stereo not drawn)	–	> 100	–	> 100 µM	–	> 100	–	> 100 µM	–	> 100	–	> 100 µM	–	> 100	–	> 100	–	> 100 µM	–	> 100
N#Cc1c2c(c(N=[N+]=[N-])n3c1nc1ccccc13)CCCC2	–	5.46	–	13.1 µM	–	25.8	–	31 µM	–	3.77	–	6.27 µM	–	3.82	–	16.8	–	6.85 µM	–	5.76
Cc1ccc(NCSc2ccc(Cl)cc2)cc1	> 100 µM	> 100	5.94 µM	> 100 µM	> 100 µM	> 100	30.7 µM	> 100 µM	> 100 µM	> 100	63.4 µM	> 100 µM	> 100 µM	> 100	> 100 µM	> 100	2.29 µM	> 100 µM	51.8 µM	> 100
